From ChEMBL document CHEMBL5241086, “Research progress of indole compounds with potential antidiabetic activity” (Eur J Med Chem, 2021)
Converted amounts (≈) assume the structure as drawn. Blank lines part the entries; values can stand above or below the molecule they belong to.

Key:
Alpha glucosidase [1] = molecular target: T1, Alpha glucosidase (Homo sapiens, UniProt O43451+P10253+P14410+Q2M2H8); assay: Inhibition of alpha glucosidase (unknown origin) using p-nitrophenyl glucopyranoside as substrate by multimode plate reader analysis; format: protein assay
Homo sapiens = species on record: Homo sapiens; assay: Inhibition of beta-glucosidase (unknown origin) assessed as residual activity at 100 uM […] incubated for 1 hr followed by substrate addition and measured after 5 mins by spectrophotometer analysis relative to control; conditions: time 65.0 hrs
[2] = molecular target: Aldo-keto reductase family 1 member B1 (Homo sapiens) (UniProt P15121); assay: Inhibition of Aldose reductase (unknown origin) using DL-Glyceraldehyde as substrate incubated for 5 mins in presence of NADPH by spectrophotometer analysis
[3] = molecular target: T2, Glucose-dependent insulinotropic receptor (Homo sapiens, UniProt Q8TDV5); assay: Agonist activity at human GPR119 incubated for 2 hrs by luciferase reporter gene assay
T2 sequence (Q8TDV5 whole entry): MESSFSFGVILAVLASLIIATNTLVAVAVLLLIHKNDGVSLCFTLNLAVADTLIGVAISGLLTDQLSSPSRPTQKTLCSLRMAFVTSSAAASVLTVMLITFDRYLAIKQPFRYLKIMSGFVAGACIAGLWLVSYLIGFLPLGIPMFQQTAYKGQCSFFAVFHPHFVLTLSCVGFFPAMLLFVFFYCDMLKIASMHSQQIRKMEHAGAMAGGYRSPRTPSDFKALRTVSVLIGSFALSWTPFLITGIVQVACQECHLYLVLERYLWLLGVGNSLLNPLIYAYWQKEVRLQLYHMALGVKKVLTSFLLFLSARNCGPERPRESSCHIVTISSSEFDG

Alpha glucosidase [4] = molecular target: T1, Alpha glucosidase; assay: Inhibition of alpha glucosidase (unknown origin) using p-nitrophenyl glucopyranoside as substrate by UV based microplate reader analysis; format: protein assay
Mus musculus = assay: Antidiabetic activity in mouse assessed as reduction in blood glucose level at 100 mg/kg, po bid measured up to 21 days; format: functional; design: scale not given: the % may be the effect or the level left; conditions: time <= 21 day
Alpha glucosidase [5] = molecular target: T1, Alpha glucosidase; assay: Inhibition of alpha glucosidase (unknown origin) using p-nitrophenyl glucopyranoside as substrate preincubated for 15 mins followed by substrate addition and measured after 30 mins by spectrophotometer analysis; format: protein assay
Alpha glucosidase [6] = molecular target: T1, Alpha glucosidase; assay: Inhibition of alpha glucosidase (unknown origin) using p-nitrophenyl glucopyranoside as substrate by UV Vis- spectrophotometer analysis; format: protein assay

- IC50 (Alpha glucosidase [1]): 11.5 µM
Compound: Clc1ccc2c(c1)NC(c1c[nH]c3ccccc13)OC2 (configuration not stated)

- IC50 (Alpha glucosidase [1]): 11.5 µM
Compound: Cc1[nH]c2ccccc2c1C1Nc2ccccc2CO1 (configuration not stated)

- Activity (Homo sapiens): 49%
Compound: O=C(N[C@@H](Cc1c[nH]c2ccccc12)C(=O)O)c1cccc(Cl)c1

- inhibition [2]: 11%
Compound: Nc1ccc(-c2cc3ccccc3[nH]2)cc1

- EC50 [3]: 0.0039 µM
Compound: CCc1cnc(N2CCC(C(C)COC(=O)N3CCc4cc(S(C)(=O)=O)ccc43)CC2)nc1 (configuration not stated)

- IC50 (Alpha glucosidase [1]): 11.5 µM
Compound: c1ccc2c(c1)COC(c1c[nH]c3ccccc13)N2 (configuration not stated)

- IC50 (Alpha glucosidase [4]): 9.37 µM
Compound: Cc1ccnc(NC(=O)CSc2nnc(CCCc3c[nH]c4ccccc34)o2)c1

- IC50 (Alpha glucosidase [1]): 11.5 µM
Compound: Clc1ccc2c(c1)COC(c1c(-c3ccccc3)[nH]c3ccccc13)N2 (configuration not stated)

- IC50 (Alpha glucosidase [4]): 9.46 µM
Compound: Cc1cccc(NC(=O)CSc2nnc(CCCc3c[nH]c4ccccc34)o2)c1C

- Activity (Homo sapiens): 37%
Compound: COC(=O)[C@H](Cc1c[nH]c2ccccc12)NC(=O)c1cccc([N+](=O)[O-])c1

Compound: O=C1Nc2ccccc2/C1=N/NC(=S)N/N=C/c1ccc(Cl)cc1
- Activity (Mus musculus): 29.6%

- inhibition [2]: 5.3%
Compound: O=[N+]([O-])c1cc(-c2cc3ccccc3[nH]2)ccc1Cl

- IC50 (Alpha glucosidase [1]): 11.5 µM
Compound: Cc1ccc2c(c1)COC(c1c(C)[nH]c3ccccc13)N2 (configuration not stated)

- IC50 (Alpha glucosidase [5]): 5.98 µM
Compound: O=C1Nc2ccccc2C1(c1cn(Cc2ccccc2F)c2ccccc12)c1cn(Cc2ccccc2F)c2ccccc12

- inhibition [2]: 7.6%
Compound: O=Cc1c(-c2ccccc2)[nH]c2ccccc12

- IC50 (Alpha glucosidase [6]): 236.1 µg/mL (≈ 475 µM)
Compound: Brc1ccc(-c2csc(-n3nc(-c4ccccc4)cc3-c3c[nH]c4ccccc34)n2)cc1

- IC50 (Alpha glucosidase [1]): 11.5 µM
Compound: Cc1ccc2c(c1)COC(c1c(-c3ccccc3)[nH]c3ccccc13)N2 (configuration not stated)
